{"source": "patent US5834494A", "about": "“Pyridylcarbamoyl Indolines” (SmithKline Beecham p.l.c., priority 1993, dated 1998)", "experiment": "Geller Seifter Procedure", "assay_type": "in vivo", "conditions": "dose range 0.5-10 mg/kg p.o.; procedure of WO 94/04533", "protocol": "The compound of example 2 was tested following the procedure outlined in WO 94/04533."}
{"compound": "Cc1cc2c(cc1Cl)N(C(=O)Nc1cccnc1)CC2", "note": "[Example 2, 6-Chloro-5-methyl-1-(3-pyridycarbamoyl)indoline]", "values": [{"measurement": "punished responding", "value": "significant increase in punished responding"}]}
